Assay results: patent US6761896B1, “Skin cosmetic care system and method” (Unilever Home & Personal Care USA, division of Conopco, Inc., priority 1998, dated 2004)

What was measured:
[1] = system: normal human keratinocytes; test: Keratinocyte proliferation measured by DNA content (monolayer cultures); assay type: cell-based
Method: The cells used in these studies are normal human keratinocytes and pig skin organ cultures. The normal human keratinocytes isolated from neonatal foreskins by trypsin treatment were growth in DME medium/5% fetal calf serum in the presence of mitomycin C treated 3T3 mouse fibroblasts of establishing dividing colonies. Keratinocytes were grown under these conditions until their third passage. For the experiments, third passage keratinocytes were plated into a serum-free keratincoyte growth medium (KGM; obtained form Clonetics, San Diego, Calif.) containing 0.15 mM calcium. Neonatal human fibroblasts were obtained from Clonetics and grown in Dulbecco's Minimum essential medium (DMEM) containing 10% fetal calf serum. Experiments were conducted in cells between passage numbers 4-10. Keratinocytes were plated in the middle 60 wells of 96 well plates (3000 cells/well). 24 hrs later, the plates were placed on top, in the middle of the magnet (bar or Bioflex) and grown for a further 4 days until the cells become 70-80% confluent. Medium was changed every 2 or 3 days. Control plates were placed on top of a nonmagnetic metal plate and the test plates were placed on top of the bar magnet (North or South side up) or in the middle of the Bioflex magnet. In some studies where the growth of cells were measured as a function of magnetic force, plates were placed on top of one another on top of the magnet such that the bottom plate is closest to the magnet (highest force) and the top plate is the furthest away from the magnet (lowest magnetic force). Studies to assess the effects of North and South magnets were carried out in different incubators to avoid the influence of one magnet on the other. After 4 days of growth, the plates were removed from the incubator, washed 2 times with phosphate buffered saline (PBS), and incubated with 100 ul of a bisbenzimide H 33258 solution (obtained from Calbiochem—stock solution was prepared at 1 mg/ml distilled water,'stored in dark at 4° C. for no longer than 1 week). After 15 min of incubation in the dark at room temperature, fluorescence was measured on a Millipore Cytofluor 2000b (ex/em=360/460 nm). The DNA content was calculated using a standard of calf thymus DNA and expressed as ug/well or as % of control wells which were not exposed to magnets. In all the studies using monolayer cultures mean+/−standard deviation of at least 24 different wells were used to calculate statistical significance using Students t-test. Example 3 evaluated the synergy between lactic acid and magnetic field in inducing the proliferation of keratinocytes. In this study, using in vitro keratinocyte cultures, 2 mM lactic acid increased proliferation by 5.4%. This increase was not statistically significant. […]

pig skin dermis = test: DNA synthesis (3H-thymidine) of pig skin organ cultures, dermis; assay type: cell-based
Method: Freshly excised 2-3 week old piglet skins were obtained from Buckshire Farms, Pa. The pig skins were washed exhaustively first with soap and then with 10× antibiotic containing medium (penicillin, streptomycin). The pig skins were then dermatomed at 200 microns thickness. Seven (7) mm punch biopsies were made from these washed pig skins. The biopsies are then washed again with the 10× antibiotic medium and finally with normal DMEM (2 washes). Three (3) biopsies were incubated in each transwell plates, epidermal side up, with 1 ml of serum free DMEM fed from the bottom of the plates. Experiments were started 3 days after the biopsies were equilibrated under these conditions. Three (3) days after equilibrating the pig skin organ cultures prepared as described above, the medium was removed, 1 ml of fresh medium was added, and the wells were treated with different concentrations of lactic acid by adding from a 100 fold concentrated stock in water, directly into the medium. Simultaneous with the addition of lactic acid, selected cultures were also exposed to the South or North pole of a bar magnet or to the Bioflex magnet. The magnets were placed on top of the culture dish to expose the epidermis directly (the organ culture is carried out with the epidermis side on top). Three (3) days later, medium was changed, lactic acid was re-added, and 10 uCi ^3H-thymidine was added to each well. Plates were incubated for a further 24 hrs. At the end of the incubation period, biopsies were removed, washed in PBS for 1 hr with shaking, and incubated overnight in 10 ml of 2M sodium bromide with shaking to split the epidermis from the dermis. The biopsies were washed with PBS, and the epidermis was peeled off from dermis carefully using a scalpel. The epidermis and dermis were digested with 1 ml of 0.5N NaOH overnight at 50 C, 200 ul was used for counting the radioactivity. The DNA synthesis rate was calculated as cpm/7 mm punch biopsy for dermis or epidermis and in some experiments expressed also as % of controls. All organ culture experiments were conducted with at least 6 replicates, and the mean+/−standard deviation was calculated for statistical analysis using Students t-test. In example 7, dermal proliferation was measured as a function of lactic acid and magnetic pole treatment.

[2] = Example 7, dermis, LA + North pole
[3] = Example 7, dermis, LA + South pole

## CC(O)C(=O)O (stereo not drawn) [LA, lactic acid]
[1]; 2 mM lactic acid + BIOflex magnet
  DNA content, Average: 277
[1]; 2 mM lactic acid in the presence of BIOflex magnet, statistically significant
  stimulation of keratinocyte proliferation: 15%
[1]; 2 mM lactic acid, no magnet
  DNA content, Average: 254
[1]; 2 mM lactic acid, no magnet, not statistically significant
  increase in keratinocyte proliferation: 5.4%
Pig skin dermis; Example 7, dermis, 0.2 mM LA, no magnet
  DNA SYNTHESIS (CPM/BIOPSY) MEAN +/- STD: 15306 +/− 4656 CPM/BIOPSY
Pig skin dermis; [2]
  DNA SYNTHESIS (CPM/BIOPSY) MEAN +/- STD: 16886 +/− 2227 CPM/BIOPSY
  DNA synthesis AS % OF CONTROL: 178%
Pig skin dermis; [3]
  DNA SYNTHESIS (CPM/BIOPSY) MEAN +/- STD: 17244 +/− 4259 CPM/BIOPSY
  DNA synthesis AS % OF CONTROL: 182%
Pig skin dermis; Example 7, combinations of magnet with lactic acid
  synergy of magnet with lactic acid in the dermis: no synergy
Pig skin dermis; Example 7, lactic acid alone
  effect on dermal proliferation: significant stimulation
Pig skin dermis; Sus scrofa, Example 7, dermis, 0.2 mM LA, no magnet, read-out: DNA synthesis AS % OF CONTROL
  activity at 200 µM: 162%
